Reference: US11476000B2, “Methods and systems using mathematical analysis and machine learning to diagnose disease” (Analytics For Life Inc., priority 2015, dated 2022)

What was measured:
[1] = system: outbred pregnant Sprague-Dawley rats; settings: four 300 mg/kg doses every twelve hours beginning morning of GD 9; fetuses examined on GD 21; cited from earlier work
[2] = system: test rats exposed to DMO in-utero; test: Cardiovascular adaptation to pregnancy in rats exposed to DMO in utero; assay type: in vivo, rat; settings: in-utero exposed rats with resolved CHD; altered CO, SV, strain, elevated mean arterial pressure
Protocol: (§1) To explore the potential deleterious long-term consequences of resolved CHDs, the exemplified rat model was developed that recapitulates many of the clinical presentations of CHD. To generate such a model, pregnant rats were treated with a chemical teratogen. […] Without wishing to be bound to particular theory, it is thought that DMO teratogenicity is mediated by oxidative stress which might be the result of the result of hypoxia reperfusion injury caused by bradycardias induced by disruption of calcium and potassium ion channels in embryonic myocytes. […] The administration of four 300 mg/kg doses every twelve hours beginning on the morning of gestation day (GD) 9 produces approximately a 50% incidence of CHD if fetuses are examined on GD 21, one day prior to natural parturition (see, e.g., Weston et al., “Co-variation in frequency and severity of cardiovascular and skeletal defects in Sprague-Dawley rats after maternal administration of dimethadione, the N-demethylated metabolite of trimethadione. Birth defects research Part B,” Developmental and reproductive toxicology, Vol. 92, Pages 206-15 (2011)). […] For example, in infants, approximately 80% of VSD resolves by one year of age, and in test rats after DMO exposure, about 80% of the VSD resolve spontaneously by weaning. […]

[3] = system: outbred pregnant Sprague-Dawley rats; test: Teratogenicity of maternal DMO administration in pregnant rats (CHD in progeny); assay type: in vivo; settings: rat pups after DMO exposure, natural delivery, echocardiography
Protocol: as §1

[4] = estimated; cited from earlier work

In the case of `CC1(C)OC(=O)NC1=O` [DMO, dimethadione], the “incidence of CHD” value [1] is given as roughly 50%, the “adaptation of the cardiovascular system to pregnancy” value [2] is given as “adapted poorly to the burden of pregnancy” and the “VSD that resolve spontaneously by weaning” value [3] is given as “approximately 80%”.
For `CN1C(=O)OC(C)(C)C1=O` [trimethadione], the “in utero exposures resulting in embryo/fetal loss, or malformations including a high incidence of CHD” value [4] is given as 80%.
